PubChem BioAssay (NCI)
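Test compounds were applied to cells in 96-well plates for 48 hours at 5 doses. Abbreviation: GI50, concentration required for 50% inhibition of growth. At the TGI there is no net growth.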

Key:
Test in all cases: NCI anticancer screen, dose series, 48 h
786-0 renal = test system: 786-0 renal
A498 renal = test system: A498 renal
A549 NSCLC = test system: A549 NSCLC
ACHN renal = test system: ACHN renal
BT-549 breast = test system: BT-549 breast
CAKI-1 renal = test system: CAKI-1 renal
CCRF-CEM leukemia = test system: CCRF-CEM leukemia
COLO 205 colon = test system: COLO 205 colon
DU-145 prostate = test system: DU-145 prostate
EKVX NSCLC = test system: EKVX NSCLC
HCC-2998 colon = test system: HCC-2998 colon
HCT-116 colon = test system: HCT-116 colon
HCT-15 colon = test system: HCT-15 colon
HL-60(TB) leukemia = test system: HL-60(TB) leukemia
HOP-62 NSCLC = test system: HOP-62 NSCLC
HOP-92 NSCLC = test system: HOP-92 NSCLC
HS 578T breast = test system: HS 578T breast
HT29 colon = test system: HT29 colon
IGROV1 ovarian = test system: IGROV1 ovarian
K-562 leukemia = test system: K-562 leukemia
KM12 colon = test system: KM12 colon
LOX IMVI melanoma = test system: LOX IMVI melanoma
M14 melanoma = test system: M14 melanoma
MALME-3M melanoma = test system: MALME-3M melanoma
MCF7 breast = test system: MCF7 breast
MDA-MB-231 breast = test system: MDA-MB-231 breast
MDA-MB-435 = test system: MDA-MB-435
MOLT-4 leukemia = test system: MOLT-4 leukemia
NCI-H226 lung = test system: NCI-H226 lung
NCI-H23 lung = test system: NCI-H23 lung
NCI-H460 lung = test system: NCI-H460 lung
NCI-H522 lung = test system: NCI-H522 lung
NCI/ADR-RES ovarian = test system: NCI/ADR-RES ovarian
OVCAR-3 ovarian = test system: OVCAR-3 ovarian
OVCAR-4 ovarian = test system: OVCAR-4 ovarian
OVCAR-5 ovarian = test system: OVCAR-5 ovarian
OVCAR-8 ovarian = test system: OVCAR-8 ovarian
PC-3 prostate = test system: PC-3 prostate
RPMI-8226 leukemia = test system: RPMI-8226 leukemia
RXF 393 renal = test system: RXF 393 renal
SF-268 CNS = test system: SF-268 CNS
SF-295 CNS = test system: SF-295 CNS
SF-539 CNS = test system: SF-539 CNS
SK-MEL-2 melanoma = test system: SK-MEL-2 melanoma
SK-MEL-28 melanoma = test system: SK-MEL-28 melanoma
SK-MEL-5 melanoma = test system: SK-MEL-5 melanoma
SK-OV-3 ovarian = test system: SK-OV-3 ovarian
SN12C renal = test system: SN12C renal
SNB-19 CNS = test system: SNB-19 CNS
SNB-75 CNS = test system: SNB-75 CNS
SR leukemia = test system: SR leukemia
SW-620 colon = test system: SW-620 colon
T-47D breast = test system: T-47D breast
TK-10 renal = test system: TK-10 renal
U251 CNS = test system: U251 CNS
UACC-257 melanoma = test system: UACC-257 melanoma
UACC-62 melanoma = test system: UACC-62 melanoma
UO-31 renal = test system: UO-31 renal

## C1=C\CCCCN2CC[C@H]3[C@H](CCCC/C=C\CCCN4C[C@@H](CCCCC/1)C[C@@H]3C4)C2
786-0 renal
  GI50: 12.5 µM
  TGI: 25.9 µM
A498 renal
  GI50: 6.31 µM
  TGI: 21.4 µM
A549 NSCLC
  GI50: 12.1 µM
  TGI: 26.8 µM
ACHN renal
  GI50: 2800 nM
  TGI: 10.5 µM
BT-549 breast
  GI50: 13.4 µM
  TGI: 27.3 µM
CAKI-1 renal
  GI50: 5.13 µM
  TGI: 14.1 µM
CCRF-CEM leukemia
  GI50: 3.64 µM
  TGI: > 22.6 µM
COLO 205 colon
  GI50: 2250 nM
  TGI: 5.75 µM
DU-145 prostate
  GI50: 11.7 µM
  TGI: 23.9 µM
EKVX NSCLC
  GI50: 11.8 µM
  TGI: 25 µM
HCC-2998 colon
  GI50: 2580 nM
  TGI: 7.6 µM
HCT-116 colon
  GI50: 4.33 µM
  TGI: 20.8 µM
HCT-15 colon
  GI50: 2220 nM
  TGI: 7.77 µM
HL-60(TB) leukemia
  GI50: 2770 nM
  TGI: 10.8 µM
HOP-62 NSCLC
  GI50: 15.7 µM
  TGI: 29.8 µM
HOP-92 NSCLC
  GI50: 4.04 µM
  TGI: 20.1 µM
HS 578T breast
  GI50: 5.22 µM
  TGI: 15.4 µM
HT29 colon
  GI50: 3.28 µM
  TGI: 12.9 µM
IGROV1 ovarian
  GI50: 9.27 µM
  TGI: 23.1 µM
K-562 leukemia
  GI50: 2370 nM
KM12 colon
  GI50: 9.05 µM
  TGI: 21.5 µM
LOX IMVI melanoma
  GI50: 4.3 µM
  TGI: 14.8 µM
M14 melanoma
  GI50: 1770 nM
  TGI: 3.44 µM
MALME-3M melanoma
  GI50: 2130 nM
  TGI: 5.43 µM
MCF7 breast
  GI50: 3.58 µM
  TGI: 15.1 µM
MDA-MB-231 breast
  GI50: 6.03 µM
  TGI: 19.1 µM
MDA-MB-435
  GI50: 1730 nM
  TGI: 3.26 µM
MOLT-4 leukemia
  GI50: 3.67 µM
  TGI: 17.4 µM
NCI-H226 lung
  GI50: 13.5 µM
  TGI: 27.7 µM
NCI-H23 lung
  GI50: 14.3 µM
  TGI: 30.2 µM
NCI-H460 lung
  GI50: 5.58 µM
  TGI: 18.1 µM
NCI-H522 lung
  GI50: 12.6 µM
  TGI: 28.5 µM
NCI/ADR-RES ovarian
  GI50: 13.8 µM
  TGI: 28.8 µM
OVCAR-3 ovarian
  GI50: 10.8 µM
  TGI: 23.3 µM
OVCAR-4 ovarian
  GI50: 8.84 µM
  TGI: 27.5 µM
OVCAR-5 ovarian
  GI50: 12.5 µM
  TGI: 25.5 µM
OVCAR-8 ovarian
  GI50: 10.8 µM
  TGI: 25.3 µM
PC-3 prostate
  GI50: 14 µM
  TGI: 36.6 µM
RPMI-8226 leukemia
  GI50: 2060 nM
  TGI: 6.16 µM
RXF 393 renal
  GI50: 2720 nM
  TGI: 8.17 µM
SF-268 CNS
  GI50: 13.6 µM
  TGI: 26.8 µM
SF-295 CNS
  GI50: 5.3 µM
  TGI: 12.1 µM
SF-539 CNS
  GI50: 3.24 µM
  TGI: 11.5 µM
SK-MEL-2 melanoma
  GI50: 10.4 µM
  TGI: 26.3 µM
SK-MEL-28 melanoma
  GI50: 1820 nM
  TGI: 3.35 µM
SK-MEL-5 melanoma
  GI50: 4.75 µM
  TGI: 16.7 µM
SK-OV-3 ovarian
  GI50: 13.3 µM
  TGI: 26.2 µM
SN12C renal
  GI50: 11.6 µM
  TGI: 23.9 µM
SNB-19 CNS
  GI50: 16.4 µM
  TGI: 30.5 µM
SNB-75 CNS
  GI50: 3.99 µM
  TGI: 18.9 µM
SR leukemia
  GI50: 1850 nM
  TGI: 4.93 µM
SW-620 colon
  GI50: 6.96 µM
  TGI: 19.4 µM
T-47D breast
  GI50: 10 µM
  TGI: 27.4 µM
TK-10 renal
  GI50: 2980 nM
  TGI: 12.4 µM
U251 CNS
  GI50: 4.25 µM
  TGI: 16.5 µM
UACC-257 melanoma
  GI50: 1740 nM
  TGI: 3.5 µM
UACC-62 melanoma
  GI50: 13.2 µM
  TGI: 25.9 µM
UO-31 renal
  GI50: 4.35 µM
  TGI: 10.5 µM
